Laboratory results: ChEMBL document CHEMBL1201862, “PubChem BioAssay data set” (2004)
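In this assay, cells in 96-well plates receive the compound at five concentrations for 48 hours. Endpoints are linearly interpolated between the surrounding concentrations. GI50 marks 50% less growth.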 Active and inactive are the calls of the source. Cut-off read from the data, not from the text of the source: active = GI50 up to about 1.1 µM and inactive = higher.

Columns and labels:
Assay in all cases: NCI tumour cell line growth inhibition, 48 h
BT-549 = system: BT-549
UACC-62 = system: UACC-62
SW-620 = system: SW-620
SNB-19 = system: SNB-19
786-0 = system: 786-0
SN12C = system: SN12C
HCC 2998 = system: HCC 2998
CAKI-1 = system: CAKI-1
OVCAR-5 = system: OVCAR-5
SK-MEL-2 = system: SK-MEL-2
NCI-H226 = system: NCI-H226
NCI/ADR-RES = system: NCI/ADR-RES
HL-60 = system: HL-60
U-251 = system: U-251
HOP-92 = system: HOP-92
KM12 = system: KM12
COLO 205 = system: COLO 205
SF-295 = system: SF-295
MOLT-4 = system: MOLT-4

Measured: GI50

CC(C)C(N)(C(=O)O)c1ccccc1 (configuration not stated)
inactive: BT-549 > 100 µM | UACC-62 > 100 µM | SW-620 > 100 µM | SNB-19 > 100 µM | 786-0 > 100 µM | SN12C > 100 µM | HCC 2998 > 100 µM | CAKI-1 > 100 µM | OVCAR-5 > 100 µM | SK-MEL-2 > 100 µM | NCI-H226 > 100 µM | NCI/ADR-RES > 100 µM | HL-60 > 100 µM | U-251 > 100 µM | HOP-92 > 100 µM | KM12 > 100 µM | COLO 205 > 100 µM | SF-295 > 100 µM

Cc1ccc2c(n1)C(=O)c1ccccc1C2=O
inactive: BT-549 32.4 µM | UACC-62 20.5 µM | SW-620 31.7 µM | SNB-19 26.2 µM | 786-0 27.6 µM | SN12C 26.4 µM | HCC 2998 28.8 µM | CAKI-1 39.2 µM | OVCAR-5 21.9 µM | SK-MEL-2 28.8 µM | NCI-H226 38 µM | NCI/ADR-RES 24.4 µM | HL-60 15.4 µM | U-251 27.8 µM | MOLT-4 33 µM | HOP-92 51.6 µM | KM12 30.1 µM | COLO 205 16.9 µM | SF-295 25.8 µM

O=[N+]([O-])c1ccc2c(c1)N=C1OC(c3c[nH]c4ccc(COc5ccccc5)cc34)C(O)=C1N2 (configuration not stated)
inactive: BT-549 > 100 µM | UACC-62 52 µM | SW-620 > 100 µM | SNB-19 > 100 µM | 786-0 53.8 µM | SN12C > 100 µM | HCC 2998 21.2 µM | CAKI-1 > 100 µM | OVCAR-5 > 100 µM | SK-MEL-2 > 100 µM | NCI-H226 > 100 µM | NCI/ADR-RES > 100 µM | HL-60 1.74 µM | U-251 > 100 µM | MOLT-4 1.82 µM | HOP-92 > 100 µM | KM12 > 100 µM | COLO 205 23.2 µM | SF-295 47.6 µM

CCOC(=O)c1nc2ccc(C(F)(F)F)cc2nc1Oc1ccc(C#N)cc1
inactive: BT-549 18.8 µM | UACC-62 19.1 µM | SW-620 40.3 µM | SNB-19 17.7 µM | 786-0 18 µM | HCC 2998 61.4 µM | CAKI-1 20.3 µM | SK-MEL-2 15.7 µM | NCI-H226 11.3 µM | NCI/ADR-RES 18.2 µM | HL-60 > 100 µM | U-251 26.3 µM | MOLT-4 > 100 µM | HOP-92 17 µM | KM12 23.6 µM | COLO 205 27.4 µM | SF-295 14.8 µM

CC1(C)OC2CN(C(=O)OCc3ccccc3)C(CO)C2O1 (configuration not stated)
inactive: BT-549 > 100 µM | UACC-62 > 100 µM | SW-620 > 100 µM | SNB-19 > 100 µM | 786-0 > 100 µM | SN12C > 100 µM | HCC 2998 > 100 µM | CAKI-1 > 100 µM | OVCAR-5 > 100 µM | SK-MEL-2 > 100 µM | NCI-H226 > 100 µM | NCI/ADR-RES > 100 µM | HL-60 > 100 µM | U-251 > 100 µM | MOLT-4 > 100 µM | HOP-92 > 100 µM | KM12 > 100 µM | COLO 205 > 100 µM | SF-295 > 100 µM

O=S(=O)(O)c1ccc(/N=N/c2ccc(/N=N/c3c(O)ccc4ccccc34)c(S(=O)(=O)O)c2)cc1
inactive: BT-549 > 100 µM | UACC-62 > 100 µM | SW-620 > 100 µM | SNB-19 > 100 µM | 786-0 > 100 µM | HCC 2998 > 100 µM | CAKI-1 > 100 µM | OVCAR-5 > 100 µM | SK-MEL-2 > 100 µM | NCI-H226 > 100 µM | NCI/ADR-RES > 100 µM | HL-60 > 100 µM | U-251 > 100 µM | MOLT-4 > 100 µM | HOP-92 > 100 µM | KM12 > 100 µM | COLO 205 > 100 µM | SF-295 > 100 µM

O=C(c1ccc(Cl)cc1)N(C(=S)OC12CC3CC(CC(C3)C1)C2)c1ccccc1
inactive: BT-549 43.2 µM | UACC-62 40.6 µM | SW-620 34.4 µM | SNB-19 29.6 µM | 786-0 29.6 µM | SN12C 45.2 µM | HCC 2998 31.6 µM | CAKI-1 35.2 µM | OVCAR-5 45.6 µM | SK-MEL-2 30.1 µM | NCI-H226 30.9 µM | NCI/ADR-RES 36.5 µM | HL-60 17 µM | U-251 30.2 µM | MOLT-4 26.9 µM | HOP-92 34 µM | KM12 39.1 µM | COLO 205 16.8 µM | SF-295 36.8 µM

COc1ccc(-c2cc(-c3ccc(Nc4ccnc5cc(C(F)(F)F)ccc45)cc3)nc(N)c2C#N)cc1
inactive: BT-549 46.2 µM | UACC-62 40.6 µM | SW-620 62.1 µM | SNB-19 42.7 µM | 786-0 > 100 µM | HCC 2998 > 100 µM | CAKI-1 > 100 µM | OVCAR-5 > 100 µM | SK-MEL-2 45.2 µM | NCI-H226 > 100 µM | NCI/ADR-RES > 100 µM | HL-60 > 100 µM | U-251 75 µM | MOLT-4 95.5 µM | HOP-92 26.1 µM | KM12 86.9 µM | COLO 205 > 100 µM | SF-295 32 µM
